From ChEMBL document CHEMBL4007392, “Modulating Mineralocorticoid Receptor with Non-steroidal Antagonists. New Opportunities for the Development of Potent and Selective Ligands without Off-Target Side Effects” (J Med Chem, 2017) come the findings set out here.

The target in this assay is T1, Progesterone receptor (Homo sapiens, UniProt P06401).
T1 sequence (P06401 whole entry): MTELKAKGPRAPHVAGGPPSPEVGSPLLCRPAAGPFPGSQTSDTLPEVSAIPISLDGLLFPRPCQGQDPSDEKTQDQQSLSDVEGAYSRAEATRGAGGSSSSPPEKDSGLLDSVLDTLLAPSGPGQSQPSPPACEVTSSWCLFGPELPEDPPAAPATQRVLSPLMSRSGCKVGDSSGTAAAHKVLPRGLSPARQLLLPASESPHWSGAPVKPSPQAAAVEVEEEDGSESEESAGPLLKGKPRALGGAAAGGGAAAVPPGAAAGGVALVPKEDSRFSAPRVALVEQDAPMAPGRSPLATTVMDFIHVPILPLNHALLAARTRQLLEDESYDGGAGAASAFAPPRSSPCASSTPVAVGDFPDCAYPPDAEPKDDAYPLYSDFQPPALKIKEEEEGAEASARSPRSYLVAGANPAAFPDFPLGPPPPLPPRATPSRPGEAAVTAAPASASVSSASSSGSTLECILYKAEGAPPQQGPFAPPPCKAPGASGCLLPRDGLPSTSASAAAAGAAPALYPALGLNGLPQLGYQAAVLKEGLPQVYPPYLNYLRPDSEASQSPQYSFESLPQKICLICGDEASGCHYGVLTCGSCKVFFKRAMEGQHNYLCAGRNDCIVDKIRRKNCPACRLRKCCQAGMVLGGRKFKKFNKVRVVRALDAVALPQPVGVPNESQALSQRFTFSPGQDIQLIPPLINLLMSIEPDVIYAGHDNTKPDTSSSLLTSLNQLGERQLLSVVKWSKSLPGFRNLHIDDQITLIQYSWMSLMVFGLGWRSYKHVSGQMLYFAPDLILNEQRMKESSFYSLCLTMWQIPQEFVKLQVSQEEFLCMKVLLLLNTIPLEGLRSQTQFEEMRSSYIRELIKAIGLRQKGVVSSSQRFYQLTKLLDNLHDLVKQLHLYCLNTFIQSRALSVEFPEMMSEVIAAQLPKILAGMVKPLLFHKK
The assay can be described thus: Antagonist activity at GAL4-fused human PR LBD (680 to 933 residues) expressed in CHO-K1 cells assessed as inhibition of progesterone-induced transactivation activity after 5 to 6 hrs by luciferase reporter gene assay. In kind it is cell-based.

Usually IC50 stands for the concentration at which inhibition is half-maximal.

Some results are limits rather than exact numbers.

For the compound `CCOc1ncc(C)c2c1[C@H](c1ccc(C#N)cc1OC)C(C(N)=O)=C(C)N2` [FINERENONE], the 50% inhibitory concentration (IC50) was at least 10 µM.
